{"source": "patent EP0830890A1", "about": "“Surfactants for use in liquid/supercritical CO2” (AIR PRODUCTS AND CHEMICALS, INC., priority 1996, dated 1998)", "assay_type_in_all_cases": "physicochemical", "key": {"[1]": {"assay": "Interfacial tension of a PEG 600 drop in CO2/surfactant solution via pendant drop technique", "conditions": "PEG (600) drop, 2 weight % Surfynol/CO2 solution", "description": "Interfacial activity can be monitored using the 'pendant drop' technique, (\"Chemistry of Interfaces\" M.J.Jaycock & Parfitt, John Wiley and Sons, New York p49-51). This method is utilized to measure the interfacial tension between a pendant drop and a continuous phase that surrounds the drop. When carbon dioxide is used as the continuous media, special high pressure equipment with sapphire view ports is required to maintain a solution of CO2 and surfactant, and to study the change in shape of the pendant drop for interfacial tension calculations. A general procedure for these high pressure phase behavior measurements may be found in Langmuir, vol. 10 1994, pg 3536-3541, by K. Harrison, K. P. Johnston, J. Goveas and E. A. O ? Rear.\nVarious ethoxylates of 2,4,7,9-tetramethyl-5-decyn-4,7-diol were used in the interfacial tension study. Table 3 gives the interfacial tension observed for ethoxylates of 2,4,7,9-tetramethyl-5-decyn-4,7-diol containing 20, 40, and 65 wt% ethylene oxide. The table also gives the interfacial tension of the polyethyleneglycol (PEG 600)drop within the pure CO2 media. […] It is interesting to note the actual reduction in interfacial tension. For a control PEG 600 drop at 2510 psi the interfacial tension was measured to be 3.39 dyne/cm (run #5in Table 3). […] This corresponds to lowering the interfacial tension by 0.54 dyne/cm, a 16% reduction. A surfactant/CO2 solution of 2 weight % (using the 40 wt% ethoxylated Surfynol surfactant) gave an interfacial tension of 1.57 dyne/cm. at a CO2 pressure of 4030 psi (run #33in Table 3). The corresponding PEG drop at 4093psi used as the control gave an interfacial tension of 1.92dyne/cm (run #18 in Table 3)."}, "[2]": {"assay": "Solubility in CO2 by cloud point determination in a variable volume view cell", "set-up": "Pressure Describing Cloud Point Determinations For Surfactant/CO2 Concentrations / Pressure Describing Cloud Point Determinations For Surfactant/CO2Concentrations: unit not given here", "experimental": "In the following examples, mixtures of acetylenic alcohols or diols and CO2 were prepared by adding the acetylenic alcohol or diol to a stainless steel variable volume view cell equiped with suitable relief devices, high pressure valves CO2 inlet and outlet and a sapphire window at one end. A high pressure syringe pump (High Pressure Products, HIP pump) was filled with liquid CO2 and used to quantitiatively add CO2 to the pressure vessel. The pressure vessel contained a magnetic stirrer and was stirred via a magnetic couple to a magnet located below the vessel.\nA weighed amount of surfactant (0.5-10 weight %) was placed inside the cell chamber in front of the piston. The cell window was attached and 10 cc ? s of CO2, was added to the cell. The surfactant was mixed in the CO2 using a magnetic stirring bar. The cell was mounted in horizontally and then immersed in a water bath. After allowing the high pressure cell to attain thermal equilibrium the pressure within the cell was varied using a floating piston. The pressure was changed to monitor the cloud point as being indicative of insolubility. The operator viewed the floating piston through the sapphire window using a suitable optic device, the onset of insolubility was taken when the translucent solution changed to an orange/brown color due to the Tindall light scattering of the insoluble droplets. The onset of insolubility was checked several times by varying the pressure using the high pressure syringe pump.\nA water bath was used to vary the temperature for each concentration. On completing the solubility studies at one concentration and one temperature series, a calibrated injector loop attached to the high pressure cell was filled with the surfactant via a syringe. Utilizing a six way valve to help inject this fixed amount of surfactant, the surfactant concentration within the high pressure cell was increased by a fixed increment. The solubility studies for this new CO2/surfactant concentration were measured at various temperatures in a similar manner to that previously described."}, "[3]": {"assay": "Solubility in CO2 by cloud point determination in a variable volume view cell", "set-up": "unit not given here", "conditions": "Surfactant Concn. in CO2 0.2486 wt%; 65°C"}}}
{"substance": "Ethoxylated 2,4,7,9-Tetramethyl-5-decyn-4,7-diol [AP-465]", "values": [{"measurement": "Interfacial Tension IFT", "setting": "[1]; 3599 psi (248 bar)", "result": 1.95, "unit": "dyne/cm"}, {"measurement": "Interfacial Tension IFT", "setting": "[1]; 3628 psi (250 bar)", "result": 1.99, "unit": "dyne/cm"}, {"measurement": "Interfacial Tension IFT", "setting": "[1]; 3995 psi (276 bar)", "result": 1.73, "unit": "dyne/cm"}, {"measurement": "Interfacial Tension IFT", "setting": "[1]; 3998 psi (276 bar)", "result": 1.66, "unit": "dyne/cm"}, {"measurement": "Interfacial Tension IFT", "setting": "[1]; 4505 psi (311 bar)", "result": 1.51, "unit": "dyne/cm"}, {"measurement": "Interfacial Tension IFT", "setting": "[1]; 4508 psi (311 bar)", "result": 1.57, "unit": "dyne/cm"}, {"measurement": "Pressure Describing Cloud Point Determinations For Surfactant/CO2Concentrations", "setting": "[2]; Surfactant Concn. in CO2 0.2486 wt%, 25°C", "result": 1440}, {"measurement": "Pressure Describing Cloud Point Determinations For Surfactant/CO2Concentrations", "setting": "[2]; Surfactant Concn. in CO2 0.2486 wt%, 35°C", "result": 1920}, {"measurement": "Pressure Describing Cloud Point Determinations For Surfactant/CO2Concentrations", "setting": "[2]; Surfactant Concn. in CO2 0.2486 wt%, 60°C", "result": 2690}, {"measurement": "Pressure Describing Cloud Point Determinations For Surfactant/CO2Concentrations", "setting": "[2]; Surfactant Concn. in CO2 0.8867 wt%, 35°C", "result": 4020}, {"measurement": "Pressure Describing Cloud Point Determinations For Surfactant/CO2Concentrations", "setting": "[2]; Surfactant Concn. in CO2 0.8867 wt%, 45°C", "result": 4590}, {"measurement": "Pressure Describing Cloud Point Determinations For Surfactant/CO2Concentrations", "setting": "[2]; Surfactant Concn. in CO2 0.8867 wt%, 60°C", "result": 5270}, {"measurement": "Pressure Describing Cloud Point Determinations For Surfactant/CO2Concentrations", "setting": "[2]; Surfactant Concn. in CO2 0.8867 wt%, 65°C", "result": 5470}, {"measurement": "CO2 solubility (in words)", "setting": "[2]; in CO2", "result": "poor CO2 solubility"}, {"measurement": "Pressure Describing Cloud Point Determinations For Surfactant/CO2Concentrations", "setting": "[3]", "result": 2800}]}
